ChEMBL document CHEMBL1201862, “PubChem BioAssay data set” (2004)
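A five-concentration, 48-hour dose response in 96-well plates underlies each endpoint, interpolated linearly between surrounding concentrations. GI50: concentration for 50% inhibition of growth.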 Activity calls are given as the source filed them. No stated cut-off is given here; in the data, active = GI50 up to about 1.1 µM and inactive = higher.

Key:
Test in all cases: NCI tumour cell line growth inhibition, 48 h
UO-31 = tested on: UO-31
K562 = tested on: K562
UACC-257 = tested on: UACC-257
HL-60 = tested on: HL-60
OVCAR-5 = tested on: OVCAR-5
HCC 2998 = tested on: HCC 2998
RPMI-8226 = tested on: RPMI-8226
A498 = tested on: A498
PC-3 = tested on: PC-3
SNB-19 = tested on: SNB-19
COLO 205 = tested on: COLO 205
DU-145 = tested on: DU-145
M14 = tested on: M14
786-0 = tested on: 786-0
HT-29 = tested on: HT-29
SF-295 = tested on: SF-295
MDA-MB-435 = tested on: MDA-MB-435
BT-549 = tested on: BT-549
OVCAR-3 = tested on: OVCAR-3

Measured: GI50

CN1CCCCC(C#N)(c2ccccc2)CC1 (configuration not stated)
inactive: UO-31 > 100 µM | K562 > 100 µM | UACC-257 > 100 µM | HL-60 > 100 µM | OVCAR-5 > 100 µM | HCC 2998 > 100 µM | RPMI-8226 > 100 µM | A498 > 100 µM | PC-3 > 100 µM | SNB-19 > 100 µM | COLO 205 > 100 µM | DU-145 > 100 µM | M14 > 100 µM | 786-0 > 100 µM | HT-29 > 100 µM | SF-295 > 100 µM

O=C1/C(=C\c2cccc(Oc3ccccc3)c2)SC(c2ccccc2)N1c1cccc(Cl)c1 (configuration not stated)
inactive: UO-31 > 100 µM | K562 > 100 µM | UACC-257 > 100 µM | MDA-MB-435 92.7 µM | OVCAR-5 > 100 µM | HCC 2998 > 100 µM | RPMI-8226 > 100 µM | A498 > 100 µM | BT-549 > 100 µM | SNB-19 > 100 µM | OVCAR-3 > 100 µM | COLO 205 > 100 µM | DU-145 > 100 µM | M14 > 100 µM | 786-0 > 100 µM | HT-29 > 100 µM | SF-295 > 100 µM

Clc1ccc(-c2ccc(-c3nnc(COc4ccc(OCc5nnc(-c6ccc(-c7ccc(Cl)cc7Cl)o6)o5)c(Cl)c4)o3)o2)c(Cl)c1
inactive: UO-31 > 100 µM | K562 > 100 µM | UACC-257 > 100 µM | HL-60 > 100 µM | MDA-MB-435 > 100 µM | OVCAR-5 > 100 µM | HCC 2998 > 100 µM | RPMI-8226 > 100 µM | A498 > 100 µM | BT-549 > 100 µM | SNB-19 61.7 µM | OVCAR-3 > 100 µM | COLO 205 > 100 µM | DU-145 > 100 µM | M14 > 100 µM | 786-0 > 100 µM | HT-29 > 100 µM | SF-295 > 100 µM

C=C(C)[C@@]1(O[Si](C)(C)C)CCCC[C@@H]1CC(Sc1ccccc1)Sc1ccccc1
inactive: UO-31 13.8 µM | K562 12.7 µM | UACC-257 15.3 µM | HL-60 16.7 µM | MDA-MB-435 15.6 µM | OVCAR-5 16.2 µM | HCC 2998 15.8 µM | RPMI-8226 16.9 µM | A498 19.9 µM | PC-3 13.2 µM | SNB-19 16.4 µM | OVCAR-3 14.1 µM | COLO 205 19.9 µM | DU-145 15 µM | M14 14.9 µM | 786-0 14.6 µM | HT-29 19.7 µM | SF-295 12.4 µM

CC/C(=C\c1ccc(Cl)c(Cl)c1)[N+](=O)[O-]
inactive: UO-31 1.88 µM | K562 2.13 µM | UACC-257 1.94 µM | HL-60 1.18 µM | MDA-MB-435 1.71 µM | OVCAR-5 2.06 µM | HCC 2998 1.7 µM | RPMI-8226 1.92 µM | A498 8.18 µM | PC-3 2.23 µM | SNB-19 2.36 µM | COLO 205 1.72 µM | DU-145 1.86 µM | M14 1.45 µM | 786-0 1.59 µM | HT-29 3.4 µM | SF-295 2.04 µM

[O-][S+](CCc1ccccc1)Nc1ccccc1 (configuration not stated)
inactive: UO-31 > 100 µM | K562 > 100 µM | UACC-257 99.3 µM | HL-60 > 100 µM | MDA-MB-435 > 100 µM | OVCAR-5 > 100 µM | HCC 2998 > 100 µM | RPMI-8226 > 100 µM | PC-3 > 100 µM | SNB-19 > 100 µM | OVCAR-3 > 100 µM | COLO 205 > 100 µM | DU-145 > 100 µM | M14 > 100 µM | 786-0 > 100 µM | HT-29 > 100 µM | SF-295 > 100 µM

COc1cc(/C=C2\N=C(c3ccccc3)N(c3cc4cc(Sc5ccccc5)ccc4[nH]3)C2=O)cc(OC)c1OC
inactive: UO-31 14.3 µM | K562 4.25 µM | UACC-257 14.8 µM | HL-60 14.6 µM | MDA-MB-435 3.84 µM | OVCAR-5 25.9 µM | HCC 2998 12.7 µM | A498 13.8 µM | BT-549 9.42 µM | SNB-19 23.2 µM | OVCAR-3 17.8 µM | COLO 205 11.3 µM | DU-145 15.2 µM | M14 11.4 µM | 786-0 12.6 µM | HT-29 16.1 µM | SF-295 20.7 µM

COC(=O)C(/C(=N/NC(=O)c1ccncc1)C(=O)Nc1ccccc1OC)c1nc2ccc(Cl)cc2nc1O (configuration not stated)
inactive: UO-31 47 µM | K562 75.9 µM | UACC-257 > 100 µM | HL-60 > 100 µM | MDA-MB-435 44.3 µM | OVCAR-5 > 100 µM | RPMI-8226 75.5 µM | A498 > 100 µM | BT-549 > 100 µM | PC-3 > 100 µM | OVCAR-3 > 100 µM | M14 > 100 µM | 786-0 > 100 µM | HT-29 > 100 µM | SF-295 > 100 µM

CC(CNC(=O)c1ccccc1)(CNC(=O)c1ccccc1)[N+](=O)[O-]
inactive: UO-31 23.8 µM | K562 > 100 µM | UACC-257 > 100 µM | HL-60 > 100 µM | MDA-MB-435 > 100 µM | OVCAR-5 > 100 µM | RPMI-8226 > 100 µM | BT-549 > 100 µM | PC-3 > 100 µM | SNB-19 7.05 µM | COLO 205 > 100 µM | DU-145 > 100 µM | M14 > 100 µM | 786-0 > 100 µM | HT-29 > 100 µM | SF-295 > 100 µM

CC(=O)OCC1OC(n2c3c(c(-c4ccco4)c(C#N)c2=S)CCCC3)C(OC(C)=O)C(OC(C)=O)C1OC(C)=O (configuration not stated)
inactive: UO-31 22.6 µM | K562 > 10 µM | UACC-257 > 31.6 µM | HL-60 > 10 µM | MDA-MB-435 > 100 µM | OVCAR-5 > 31.6 µM | HCC 2998 > 10 µM | RPMI-8226 > 100 µM | A498 12.1 µM | PC-3 > 10 µM | SNB-19 15.6 µM | OVCAR-3 23.2 µM | COLO 205 > 31.6 µM | DU-145 > 31.6 µM | M14 > 100 µM | 786-0 25.1 µM | HT-29 > 31.6 µM | SF-295 13.7 µM

CC1C2Cc3ccc(O)cc3C1(C)CCN2C (configuration not stated)
inactive: UO-31 > 100 µM | K562 > 100 µM | UACC-257 > 100 µM | HL-60 > 100 µM | MDA-MB-435 > 100 µM | OVCAR-5 > 100 µM | HCC 2998 > 100 µM | RPMI-8226 > 100 µM | A498 > 100 µM | PC-3 > 100 µM | SNB-19 > 100 µM | OVCAR-3 > 100 µM | COLO 205 > 100 µM | DU-145 > 100 µM | M14 > 100 µM | 786-0 > 100 µM | HT-29 > 100 µM | SF-295 > 100 µM
